Results reported in ChEMBL document CHEMBL3232931 (J Med Chem, 2014).
Active and inactive are the calls of the source. No cut-off for these calls is given here.

Tests used:
[1] = (§1) Inhibition of SARS coronavirus papain-like protease (amino acids 1541 to 1855) expressed in Escherichia coli BL21 (DE3) cells assessed as decrease in AMC release using Z-RLRGG-AMC as substrate by multimode plate reader analysis; set-up: species or system Severe acute respiratory syndrome-related coronavirus
[2] = system: SARS-CoV; assay: Antiviral activity against SARS coronavirus infected in african green monkey Vero E6 cells assessed as cell viability after 48 hrs by Cell Titer-Glo luminescent assay; type: functional, organism-based; conditions: Severe acute respiratory syndrome-related coronavirus
[3] = Therapeutic index, ratio of CC50 for african green monkey Vero E6 cells to EC50 for SARS coronavirus infected in african green monkey Vero E6 cells; type: cell-based; conditions: read-out: Ratio CC50/EC50
[4] = system: HEK293; assay: Cytotoxicity against human HEK293 cells assessed as cell viability after 48 hrs by Cell Titer-Glo luminescent assay; type: cell-based; conditions: hek293, 48 h
[5] = Cytotoxicity against african green monkey Vero E6 cells assessed as cell viability after 48 hrs by Cell Titer-Glo luminescent assay; type: cell-based; conditions: chlorocebus sabaeus
[6] = system: BL21-DE3; assay: Inhibition of SARS coronavirus papain-like protease (amino acids 1541 to 1855) expressed in Escherichia coli BL21 (DE3) cells assessed as decrease in AMC release using Z-RLRGG-AMC as substrate by serum shift assay based multimode plate reader analysis in presence of 5 to 20% human serum albumin; conditions: Severe acute respiratory syndrome-related coronavirus
[7] = system: BL21-DE3; assay: as §1; conditions: Severe acute respiratory syndrome-related coronavirus
[8] = target: Replicase polyprotein 1a (Human coronavirus NL63, UniProt P0C6U6); assay: (§2) Inhibition of human coronavirus NL63 PLP2 (amino acids 1565 to 1894) expressed in Escherichia coli BL21 (DE3) cells assessed as reduction of AMC release using Z-RLRGG-AMC as substrate by multimode plate reader analysis
Sequence of Replicase polyprotein 1a (P0C6U6 899-2462 limits assumed): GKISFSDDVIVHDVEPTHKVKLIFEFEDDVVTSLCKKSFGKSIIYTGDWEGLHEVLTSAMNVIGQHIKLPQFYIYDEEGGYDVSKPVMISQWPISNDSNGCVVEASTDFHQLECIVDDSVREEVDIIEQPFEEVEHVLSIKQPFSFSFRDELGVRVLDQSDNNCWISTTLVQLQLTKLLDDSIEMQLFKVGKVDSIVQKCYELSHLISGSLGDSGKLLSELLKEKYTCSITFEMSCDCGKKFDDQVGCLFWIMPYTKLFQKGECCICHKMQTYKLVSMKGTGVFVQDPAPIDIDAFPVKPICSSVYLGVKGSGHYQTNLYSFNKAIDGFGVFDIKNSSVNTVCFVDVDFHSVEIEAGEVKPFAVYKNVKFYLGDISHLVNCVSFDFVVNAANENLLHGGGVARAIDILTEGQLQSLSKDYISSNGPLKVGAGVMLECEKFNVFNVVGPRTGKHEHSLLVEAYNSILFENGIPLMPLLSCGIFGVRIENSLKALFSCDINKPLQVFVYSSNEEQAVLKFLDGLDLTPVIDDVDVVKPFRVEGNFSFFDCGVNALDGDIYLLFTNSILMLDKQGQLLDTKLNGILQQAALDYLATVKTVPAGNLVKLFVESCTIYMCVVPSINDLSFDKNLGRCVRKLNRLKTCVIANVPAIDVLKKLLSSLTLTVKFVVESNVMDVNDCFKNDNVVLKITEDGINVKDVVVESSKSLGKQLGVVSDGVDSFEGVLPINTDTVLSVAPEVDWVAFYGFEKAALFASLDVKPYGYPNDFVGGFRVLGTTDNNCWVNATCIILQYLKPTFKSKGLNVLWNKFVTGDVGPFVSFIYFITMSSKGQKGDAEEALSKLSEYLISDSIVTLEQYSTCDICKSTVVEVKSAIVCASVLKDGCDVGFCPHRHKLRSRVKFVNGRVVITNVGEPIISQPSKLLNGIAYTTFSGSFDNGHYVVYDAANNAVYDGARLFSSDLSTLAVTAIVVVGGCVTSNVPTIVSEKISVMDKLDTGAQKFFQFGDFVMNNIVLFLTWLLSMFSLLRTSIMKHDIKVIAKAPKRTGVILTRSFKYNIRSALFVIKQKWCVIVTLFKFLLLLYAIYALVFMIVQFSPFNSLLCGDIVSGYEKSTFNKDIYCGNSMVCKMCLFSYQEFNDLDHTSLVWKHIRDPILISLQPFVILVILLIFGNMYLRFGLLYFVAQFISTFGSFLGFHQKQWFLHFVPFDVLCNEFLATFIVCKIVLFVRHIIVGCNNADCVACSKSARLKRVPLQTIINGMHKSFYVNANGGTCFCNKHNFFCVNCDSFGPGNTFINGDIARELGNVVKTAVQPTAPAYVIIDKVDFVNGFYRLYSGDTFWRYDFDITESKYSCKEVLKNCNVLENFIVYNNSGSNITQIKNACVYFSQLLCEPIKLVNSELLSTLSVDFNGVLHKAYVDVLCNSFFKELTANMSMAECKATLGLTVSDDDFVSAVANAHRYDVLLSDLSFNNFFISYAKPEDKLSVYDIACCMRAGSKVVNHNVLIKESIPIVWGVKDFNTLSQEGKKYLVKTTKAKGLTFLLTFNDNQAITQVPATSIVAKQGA

[9] = target: Replicase polyprotein 1a (Human coronavirus NL63) (UniProt P0C6U6); assay: as §2
Target sequence in this assay (P0C6U6 899-2462 limits assumed): as above

[10] = system: Liver; assay: Half life in mouse liver microsomes at 1 uM; type: ADME
[11] = Metabolic stability in mouse liver microsomes assessed as parent compound remaining at 1 uM after 15 mins; type: ADME; conditions: read-out: Stability
[12] = target: Replicase polyprotein 1a (Human coronavirus NL63) (UniProt P0C6U6); assay: Inhibition of human coronavirus NL63 PLP2 (amino acids 1565 to 1894) expressed in Escherichia coli BL21 (DE3) cells assessed as reduction of AMC release using Z-RLRGG-AMC as substrate at 100 uM by multimode plate reader analysis

Structure (SMILES) | IC50 [1] | other results
C[C@H](c1cccc2ccccc12)N1CCC(C(=O)NCCc2cccc(F)c2)CC1 | 1.9 µM | –
CCC(c1cccc2ccccc12)N1CCC(C(=O)NCc2ccc3c(c2)OCO3)CC1 (racemic) | 17.2 µM | –
O=C(NCc1ccc2c(c1)OCO2)C1CCN(C(Cc2ccccc2)c2cccc3ccccc23)CC1 (racemic) | > 100 µM | –
COC[C@@H](NC(=O)C1CCN([C@H](C)c2cccc3ccccc23)CC1)c1ccccc1 | 1.9 µM | EC50 [2]: 11.7 µM; selectivity ratio [3]: > 8.5; CC50 [4]: > 100 µM; CC50 [5]: > 100 µM; inhibition [6]: Active
C[C@H](NC(=O)C1CCN([C@H](C)c2cccc3ccccc23)CC1)c1ccccc1 | 12.7 µM | –
O=C(NCc1cccc(F)c1)C1CCN(C2CCCc3ccc4ccccc4c32)CC1 (stereo not drawn) | 5.1 µM | –
COc1cc(CNC(=O)C2CCN([C@H](C)c3cccc4ccccc34)CC2)ccn1 | 0.35 µM | EC50 [2]: 9.5 µM; Imax [7]: 100%; IC50 [8]: 59 µM; Imax [9]: 67%; t1/2 [10]: 8 min; CC50 [4]: > 100 µM; CC50 [5]: > 100 µM; inhibition [6]: Active; remaining at 0.25 h, 1 µM [11]: 30%; inhibition [12]: > 30%
CNC(=O)c1cccc(CNC(=O)C2CCN([C@H](C)c3cccc4ccccc34)CC2)c1 | 0.63 µM | –
COC[C@H](NC(=O)C1CCN([C@H](C)c2cccc3ccccc23)CC1)c1ccccc1 | 18 µM | –
CC(c1cccc2ncccc12)N1CCC(C(=O)NCc2cccc(F)c2)CC1 (racemic) | 4.5 µM | –
CNC(=O)c1ccc(CNC(=O)C2CCN([C@H](C)c3cccc4ccccc34)CC2)cc1 | 0.6 µM | –
CC(c1nccc2ccccc12)N1CCC(C(=O)NCc2cccc(F)c2)CC1 (racemic) | 30.8 µM | –
C[C@H](c1cccc2ccccc12)N1CCC(C(=O)N[C@H](C)c2ccccc2)CC1 | 13.5 µM | –
C[C@H](c1cccc2ccccc12)N1CCC(C(=O)NCc2ccc(F)c(F)c2)CC1 | 29.2 µM | Imax [7]: 78%; IC50 [8]: 44 µM; Imax [9]: 48%; inhibition [12]: > 30%
CCc1ccc(CNC(=O)C2CCN([C@H](C)c3cccc4ccccc34)CC2)cc1 | 0.47 µM | –
C[C@H](c1cccc2ccccc12)N1CCC(C(=O)NCc2ccncc2)CC1 | 18.3 µM | –
CC(c1cccc2cccnc12)N1CCC(C(=O)NCc2cccc(F)c2)CC1 (racemic) | 7 µM | EC50 [2]: > 50 µM
CC(=O)Nc1ccc(CNC(=O)C2CCN([C@H](C)c3cccc4ccccc34)CC2)cc1 | 5.7 µM | Imax [7]: 94%; IC50 [8]: 37 µM; Imax [9]: 42%; inhibition [12]: > 30%
C[C@H](c1cccc2ccccc12)N1CCC(C(=O)NCc2ccccc2)CC1 | 2.2 µM | EC50 [2]: > 50 µM
C[C@H](c1cccc2ccccc12)N1CCC(C(=O)NCCc2ccc(Cl)cc2)CC1 | 1.6 µM | –
C[C@H](c1cccc2ccccc12)N1CCC(C(=O)NCc2cccnc2)CC1 | 26.3 µM | –
O=C(NCc1ccc2c(c1)OCO2)C1CCN(C(CO)c2cccc3ccccc23)CC1 (racemic) | 32 µM | –
CC(c1cccc2cnccc12)N1CCC(C(=O)NCc2cccc(F)c2)CC1 (racemic) | 6.8 µM | EC50 [2]: > 50 µM
COCC(c1cccc2ccccc12)N1CCC(C(=O)NCc2ccc3c(c2)OCO3)CC1 (racemic) | > 100 µM | –
C[C@H](c1cccc2ccccc12)N1CCC(C(=O)NCc2cccc(Cl)c2)CC1 | 27.2 µM | –
C[C@H](c1cccc2ccccc12)N1CCC(C(=O)NCc2ccc(Cl)cc2)CC1 | 0.58 µM | –
CC(=O)NCc1cccc(CNC(=O)C2CCN([C@H](C)c3cccc4ccccc34)CC2)c1 | 20.4 µM | –
